According to patent publication US9078909B2, “Tertiary amines, medicaments containing said amines, use thereof and processes for the preparation thereof” (Boehringer Ingelheim International GmbH, priority 2012, dated 2015):

Target: T1, epithelial sodium channel (ENaC) (Mus musculus, UniProt Q61180+Q9WU38+Q9WU39)
T1 construct: Mouse kidney M-1 cells were cultivated in DMEM; endogenous in cells; host or cells: mouse kidney M-1 cells (cortical collecting duct line), dexamethasone-treated, on transwell filters
T1 sequence (Q61180 1-699): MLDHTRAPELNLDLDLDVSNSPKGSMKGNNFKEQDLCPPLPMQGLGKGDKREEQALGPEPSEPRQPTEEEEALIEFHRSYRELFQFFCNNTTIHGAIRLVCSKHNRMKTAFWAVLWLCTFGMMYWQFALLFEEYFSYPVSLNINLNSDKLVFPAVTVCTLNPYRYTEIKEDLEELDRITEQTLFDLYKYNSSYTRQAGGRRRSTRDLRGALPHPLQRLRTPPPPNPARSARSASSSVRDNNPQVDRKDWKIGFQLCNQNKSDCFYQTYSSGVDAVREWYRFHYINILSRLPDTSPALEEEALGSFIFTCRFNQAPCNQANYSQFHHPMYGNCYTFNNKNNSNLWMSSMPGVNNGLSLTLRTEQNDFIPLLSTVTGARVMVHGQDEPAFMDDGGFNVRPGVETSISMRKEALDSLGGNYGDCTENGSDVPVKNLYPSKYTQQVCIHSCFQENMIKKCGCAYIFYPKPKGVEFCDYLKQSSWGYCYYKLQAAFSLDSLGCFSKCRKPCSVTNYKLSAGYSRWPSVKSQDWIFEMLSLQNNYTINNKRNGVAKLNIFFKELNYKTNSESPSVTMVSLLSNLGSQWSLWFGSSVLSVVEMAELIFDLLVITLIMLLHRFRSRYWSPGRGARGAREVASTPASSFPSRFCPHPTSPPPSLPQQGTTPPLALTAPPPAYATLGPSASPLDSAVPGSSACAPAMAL
T1 sequence (Q9WU38 1-638): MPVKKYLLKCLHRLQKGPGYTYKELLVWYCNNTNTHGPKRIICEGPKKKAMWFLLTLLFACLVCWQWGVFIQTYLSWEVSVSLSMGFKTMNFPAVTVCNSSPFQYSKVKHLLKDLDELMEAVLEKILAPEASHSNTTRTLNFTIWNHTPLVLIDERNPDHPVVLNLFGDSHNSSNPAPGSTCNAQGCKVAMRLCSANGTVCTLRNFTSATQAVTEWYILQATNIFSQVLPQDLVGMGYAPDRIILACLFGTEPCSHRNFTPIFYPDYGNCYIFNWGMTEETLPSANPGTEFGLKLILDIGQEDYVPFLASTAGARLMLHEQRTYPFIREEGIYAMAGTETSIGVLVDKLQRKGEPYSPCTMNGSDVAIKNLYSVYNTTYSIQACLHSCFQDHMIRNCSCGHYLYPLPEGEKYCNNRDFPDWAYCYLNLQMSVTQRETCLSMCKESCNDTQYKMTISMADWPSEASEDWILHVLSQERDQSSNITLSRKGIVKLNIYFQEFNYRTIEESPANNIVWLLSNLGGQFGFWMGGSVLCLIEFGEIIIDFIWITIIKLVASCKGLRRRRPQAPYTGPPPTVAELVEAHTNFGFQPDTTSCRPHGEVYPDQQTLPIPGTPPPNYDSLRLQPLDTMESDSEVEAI
T1 sequence (Q9WU39 1-655): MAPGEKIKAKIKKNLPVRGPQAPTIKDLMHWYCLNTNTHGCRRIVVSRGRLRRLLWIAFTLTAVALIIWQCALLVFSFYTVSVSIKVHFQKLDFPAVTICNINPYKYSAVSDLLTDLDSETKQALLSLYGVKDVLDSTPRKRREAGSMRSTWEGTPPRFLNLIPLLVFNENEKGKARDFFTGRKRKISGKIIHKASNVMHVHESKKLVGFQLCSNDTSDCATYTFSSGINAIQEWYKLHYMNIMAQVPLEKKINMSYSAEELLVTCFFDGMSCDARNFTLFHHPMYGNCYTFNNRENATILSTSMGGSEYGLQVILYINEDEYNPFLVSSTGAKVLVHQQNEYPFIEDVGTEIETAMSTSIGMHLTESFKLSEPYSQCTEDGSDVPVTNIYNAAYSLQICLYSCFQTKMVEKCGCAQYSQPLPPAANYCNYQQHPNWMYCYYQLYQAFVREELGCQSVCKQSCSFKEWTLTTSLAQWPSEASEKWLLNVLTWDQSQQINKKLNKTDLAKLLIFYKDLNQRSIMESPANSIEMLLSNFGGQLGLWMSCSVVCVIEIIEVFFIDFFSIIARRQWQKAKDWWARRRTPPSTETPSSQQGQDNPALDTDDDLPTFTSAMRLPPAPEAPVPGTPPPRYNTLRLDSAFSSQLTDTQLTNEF
Experiment: Ussing Chamber assay: inhibition of amiloride sensitive short circuit current (I_sc) in M-1 cells
Assay type: cell-based
Conditions: Ussing Chamber; mouse kidney M-1 cells on transwell filters; short circuit current; compound added to apical solution; 37° C.; read-out: IC50
Description: Ussing Chamber: Mouse kidney M-1 cells were cultivated in DMEM containing 5% FCS and 5 μM dexamethasone for 10 to 12 days on polyester transwell filters. Filters were inserted into a teflon-coated well-plate which fit into the in-house ussing chamber system. Prior to measurement the medium of M-1 cells was replaced with Caco-2 transport buffer (Invitrogen, Germany). During measurements, the Ussing chamber temperature was kept at 37° C. Short circuit currents (I_sc) were measured in the voltage-clamp mode using an in-house built amplifier (Boehringer Ingelheim, Biberach) with the software package Lab View for data acquisition and analysis. The transepithelial electrical resistance (TEER) was determined by the application of voltage steps of ±5 mV every 5 sec. Compounds were administered at a final concentration of 3 μM or at increasing concentrations (e.g. 1-3-10 μM) to the apical solution. At the end of each experiment the amiloride sensitive I_SC was measured by adding 3 μM amiloride to the apical compartment. Results are expressed as inhibition in percent of the amiloride effect or as IC50.
With the example compounds given above, the following IC50 values were determined in the Ussing Chamber assay: […]

| IC50 | Compound |
| --- | --- |
| 2 nM | N=C(NC(=O)c1nc(Cl)c(N)nc1N)NC1CCN(CC(=O)Nc2ccccc2)CC1 [Example 1.1] |
| 2 nM | NC(=O)c1ccc(NC(=O)CN2CCC(NC(N)=NC(=O)c3nc(Cl)c(N)nc3N)CC2)cc1 [Example 1.2] |
| 2 nM | NC(=NC(=O)c1nc(Cl)c(N)nc1N)NC1CCN(CC(=O)Nc2ccc(S(N)(=O)=O)cc2)CC1 [Example 1.4] |
| 6 nM | CN1CCC(N(C)C(=O)c2ccc(NC(=O)CN3CCC(NC(N)=NC(=O)c4nc(Cl)c(N)nc4N)CC3)cc2)CC1 [Example 1.5] |
| 1 nM | CN(C)CC(=O)N(C)c1ccc(NC(=O)CN2CCC(NC(N)=NC(=O)c3nc(Cl)c(N)nc3N)CC2)cc1 [Example 1.7] |
| 1 nM | NC(=NC(=O)c1nc(Cl)c(N)nc1N)NC1CCN(CC(=O)Nc2ccc(CN3CCCCC3)cc2)CC1 [Example 1.8] |
| 1 nM | NC(=NC(=O)c1nc(Cl)c(N)nc1N)NC1CCN(CC(=O)Nc2cccc(CN3CCOCC3)c2)CC1 [Example 1.9] |
| 1 nM | CC(=O)N(CCCN(C)C)c1ccc(NC(=O)CN2CCC(NC(N)=NC(=O)c3nc(Cl)c(N)nc3N)CC2)cc1 [Example 1.10] |
| 1 nM | CN(C)CCN(C)S(=O)(=O)c1ccc(NC(=O)CN2CCC(NC(N)=NC(=O)c3nc(Cl)c(N)nc3N)CC2)cc1 [Example 1.11] |
| 2 nM | CCN(CC)CCOc1ccc(NC(=O)CN2CCC(NC(N)=NC(=O)c3nc(Cl)c(N)nc3N)CC2)cc1 [Example 1.12] |
| 23 nM | NC(=NC(=O)c1nc(Cl)c(N)nc1N)NC1CCN(CC(=O)Nc2ccc(S(=O)(=O)O)cc2)CC1 [Example 1.13] |
| 1 nM | CN(C)CCN(c1ccc(NC(=O)CN2CCC(NC(N)=NC(=O)c3nc(Cl)c(N)nc3N)CC2)cc1)S(C)(=O)=O [Example 1.14] |
| 4 nM | Cn1ccc(NC(=O)CN2CCC(NC(N)=NC(=O)c3nc(Cl)c(N)nc3N)CC2)cc1=O [Example 1.15] |
| 18 nM | COC(=O)Cn1ccc(NC(=O)CN2CCC(NC(N)=NC(=O)c3nc(Cl)c(N)nc3N)CC2)cc1=O [Example 1.16] |
| 7 nM | NC(=NC(=O)c1nc(Cl)c(N)nc1N)NC1CCN(CC(=O)Nc2cccnc2)CC1 [Example 1.17] |
| 0.3 nM | COC(=O)c1ccccc1NC(=O)CN1CCC(NC(N)=NC(=O)c2nc(Cl)c(N)nc2N)CC1 [Example 1.18] |
| 3 nM | COC(=O)c1cccc(NC(=O)CN2CCC(NC(N)=NC(=O)c3nc(Cl)c(N)nc3N)CC2)c1 [Example 1.19] |
| 17 nM | NC(=NC(=O)c1nc(Cl)c(N)nc1N)NC1CCN(CC(=O)Nc2cccc(S(=O)(=O)O)c2)CC1 [Example 1.20] |
| 18 nM | CN(Cc1ccccc1)C(=O)CN1CCC(NC(N)=NC(=O)c2nc(Cl)c(N)nc2N)CC1 [Example 1.21] |
| 22 nM | CN(C(=O)CN1CCC(NC(N)=NC(=O)c2nc(Cl)c(N)nc2N)CC1)c1ccccc1 [Example 1.22] |
| 3 nM | NC(=NC(=O)c1nc(Cl)c(N)nc1N)NC1CCN(CC(=O)NCc2ccccc2)CC1 [Example 1.23] |
| 7 nM | NC(=NC(=O)c1nc(Cl)c(N)nc1N)NC1CCN(CC(=O)NCCCn2ccnc2)CC1 [Example 1.24] |
| 3 nM | CS(=O)(=O)c1ccc(CNC(=O)CN2CCC(NC(N)=NC(=O)c3nc(Cl)c(N)nc3N)CC2)cc1 [Example 1.25] |
| 3 nM | NC(=NC(=O)c1nc(Cl)c(N)nc1N)NC1CCN(CC(=O)NCc2ccc(S(N)(=O)=O)cc2)CC1 [Example 1.26] |
| 4 nM | Cc1ccc(CNC(=O)CN2CCC(NC(N)=NC(=O)c3nc(Cl)c(N)nc3N)CC2)o1 [Example 1.27] |
| 8 nM | NC(=NC(=O)c1nc(Cl)c(N)nc1N)NC1CCN(CC(=O)NC2CCOCC2)CC1 [Example 1.29] |
| 2 nM | CCSCCNC(=O)CN1CCC(NC(N)=NC(=O)c2nc(Cl)c(N)nc2N)CC1 [Example 1.30] |
| 2 nM | NC(=NC(=O)c1nc(Cl)c(N)nc1N)NC1CCN(CC(=O)NC2CCSCC2)CC1 [Example 1.31] |

| Compound | IC50 |
| --- | --- |
| NC(=NC(=O)c1nc(Cl)c(N)nc1N)NC1CCN(CC(=O)NC2CN3CCC2CC3)CC1 (centres unmarked) [Example 1.32] | 13 nM |
